Values of other authors as cited in US20150216918A1, “FERMENTED SOY NUTRITIONAL SUPPLEMENTS INCLUDING MUSHROOM COMPONENTS” (priority 2010, published 2015).

Tested on: tumor cells

In the case of `CC(C)CCCCCCCCCCCC(=O)O` [MDT-13, 13-methyl-tetradecanoic acid], the “induction of apoptosis in tumor cells” value is listed as “induce apoptosis”.
